Source: PMC6138237, “Machine intelligence decrypts β-lapachone as an allosteric 5-lipoxygenase inhibitor” (Chemical Science, 2018)
Like-named read-outs stand apart in the source and are kept apart here.

Legend:
Assay type in all cases: biochemical
EphA2 = EphA2 (Homo sapiens, UniProt P29317); assay: ExpresS Diversity Kinase Profile, Cerep (LANCE): EphA2
JAK3 = target: T1, JAK3 (Homo sapiens, UniProt P52333); assay: ExpresS Diversity Kinase Profile, Cerep (LANCE): JAK3
T1 sequence (P52333 1-1124): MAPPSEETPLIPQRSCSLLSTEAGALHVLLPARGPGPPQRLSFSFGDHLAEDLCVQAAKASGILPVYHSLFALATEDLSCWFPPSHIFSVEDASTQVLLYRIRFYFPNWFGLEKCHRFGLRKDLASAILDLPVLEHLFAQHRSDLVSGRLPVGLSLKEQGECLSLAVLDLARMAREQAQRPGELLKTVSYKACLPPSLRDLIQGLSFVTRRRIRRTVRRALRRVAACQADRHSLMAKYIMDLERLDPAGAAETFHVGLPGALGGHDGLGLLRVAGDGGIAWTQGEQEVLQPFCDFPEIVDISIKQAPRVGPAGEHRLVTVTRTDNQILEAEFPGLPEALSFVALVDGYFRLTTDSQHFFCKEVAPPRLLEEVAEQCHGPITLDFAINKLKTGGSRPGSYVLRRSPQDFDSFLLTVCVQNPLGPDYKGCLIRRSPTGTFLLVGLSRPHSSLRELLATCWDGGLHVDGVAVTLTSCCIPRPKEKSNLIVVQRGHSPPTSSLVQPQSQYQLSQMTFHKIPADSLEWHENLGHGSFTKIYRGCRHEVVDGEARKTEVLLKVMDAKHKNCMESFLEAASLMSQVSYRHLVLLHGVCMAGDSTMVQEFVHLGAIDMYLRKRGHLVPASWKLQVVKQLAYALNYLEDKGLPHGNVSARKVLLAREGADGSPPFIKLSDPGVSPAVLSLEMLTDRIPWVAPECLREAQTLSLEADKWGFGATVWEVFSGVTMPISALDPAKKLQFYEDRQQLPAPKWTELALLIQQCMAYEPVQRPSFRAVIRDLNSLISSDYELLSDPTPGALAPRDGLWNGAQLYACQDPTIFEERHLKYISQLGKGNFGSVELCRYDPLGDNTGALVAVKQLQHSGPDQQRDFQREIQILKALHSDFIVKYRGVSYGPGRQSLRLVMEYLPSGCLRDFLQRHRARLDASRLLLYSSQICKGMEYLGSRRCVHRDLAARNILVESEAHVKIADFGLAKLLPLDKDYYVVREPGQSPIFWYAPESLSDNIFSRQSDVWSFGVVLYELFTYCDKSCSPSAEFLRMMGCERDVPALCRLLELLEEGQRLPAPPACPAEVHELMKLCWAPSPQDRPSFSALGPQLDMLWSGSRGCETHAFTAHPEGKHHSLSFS

MAP4K4 = MAP4K4 (Homo sapiens, UniProt O95819); assay: ExpresS Diversity Kinase Profile, Cerep (LANCE): MAP4K4
Sequence of MAP4K4 (O95819 whole entry): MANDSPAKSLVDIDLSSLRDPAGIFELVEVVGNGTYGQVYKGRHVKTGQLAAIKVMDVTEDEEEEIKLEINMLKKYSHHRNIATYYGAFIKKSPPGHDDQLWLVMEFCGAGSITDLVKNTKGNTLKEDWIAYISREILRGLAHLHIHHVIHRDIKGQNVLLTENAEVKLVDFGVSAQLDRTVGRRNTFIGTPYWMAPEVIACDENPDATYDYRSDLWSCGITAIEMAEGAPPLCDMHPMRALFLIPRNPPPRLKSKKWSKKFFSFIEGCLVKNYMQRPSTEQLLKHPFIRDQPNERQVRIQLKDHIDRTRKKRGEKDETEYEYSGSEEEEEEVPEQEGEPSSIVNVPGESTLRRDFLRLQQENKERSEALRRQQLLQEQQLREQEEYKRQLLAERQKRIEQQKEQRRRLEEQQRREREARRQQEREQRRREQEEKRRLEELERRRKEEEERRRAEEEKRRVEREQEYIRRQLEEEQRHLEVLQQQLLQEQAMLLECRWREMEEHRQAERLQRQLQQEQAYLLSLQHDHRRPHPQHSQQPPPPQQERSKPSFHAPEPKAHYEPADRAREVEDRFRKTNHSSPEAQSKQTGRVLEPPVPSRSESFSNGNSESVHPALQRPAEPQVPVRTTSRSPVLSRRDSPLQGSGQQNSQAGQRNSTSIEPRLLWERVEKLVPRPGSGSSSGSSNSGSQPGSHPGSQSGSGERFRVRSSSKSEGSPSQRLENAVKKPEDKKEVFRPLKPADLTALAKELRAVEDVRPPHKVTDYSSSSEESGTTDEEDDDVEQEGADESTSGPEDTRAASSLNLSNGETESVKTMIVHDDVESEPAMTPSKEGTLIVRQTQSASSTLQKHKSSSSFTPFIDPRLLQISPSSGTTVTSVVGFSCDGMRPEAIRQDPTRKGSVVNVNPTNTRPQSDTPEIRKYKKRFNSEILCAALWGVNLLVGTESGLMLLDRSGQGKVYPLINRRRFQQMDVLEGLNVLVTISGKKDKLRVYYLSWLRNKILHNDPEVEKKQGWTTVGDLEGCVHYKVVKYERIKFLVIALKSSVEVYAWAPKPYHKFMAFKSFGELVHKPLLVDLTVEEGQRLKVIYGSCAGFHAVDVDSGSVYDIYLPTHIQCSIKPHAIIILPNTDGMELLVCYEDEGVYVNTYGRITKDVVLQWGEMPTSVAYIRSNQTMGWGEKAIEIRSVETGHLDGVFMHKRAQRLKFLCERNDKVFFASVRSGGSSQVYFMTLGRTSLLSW

PAK2 = PAK2 (Homo sapiens, UniProt Q13177); assay: ExpresS Diversity Kinase Profile, Cerep (LANCE): PAK2
Sequence of PAK2 (Q13177 whole entry): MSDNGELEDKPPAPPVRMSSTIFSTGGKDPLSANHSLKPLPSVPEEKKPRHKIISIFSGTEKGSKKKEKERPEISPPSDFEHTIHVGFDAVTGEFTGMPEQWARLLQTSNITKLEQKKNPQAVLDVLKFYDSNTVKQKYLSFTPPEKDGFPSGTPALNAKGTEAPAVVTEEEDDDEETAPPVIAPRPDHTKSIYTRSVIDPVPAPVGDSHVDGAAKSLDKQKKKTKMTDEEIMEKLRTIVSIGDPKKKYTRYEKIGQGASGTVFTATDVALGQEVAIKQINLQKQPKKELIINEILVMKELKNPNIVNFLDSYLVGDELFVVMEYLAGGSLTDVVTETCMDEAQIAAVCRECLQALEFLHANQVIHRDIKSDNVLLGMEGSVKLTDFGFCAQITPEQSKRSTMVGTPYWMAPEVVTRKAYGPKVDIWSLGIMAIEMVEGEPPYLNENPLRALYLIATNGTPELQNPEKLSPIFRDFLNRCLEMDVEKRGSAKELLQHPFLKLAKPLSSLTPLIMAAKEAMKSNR

TAOK2 = target: T2, TAOK2 (Homo sapiens, UniProt Q9UL54); assay: ExpresS Diversity Kinase Profile, Cerep (LANCE): TAOK2
T2 sequence (Q9UL54 1-1235): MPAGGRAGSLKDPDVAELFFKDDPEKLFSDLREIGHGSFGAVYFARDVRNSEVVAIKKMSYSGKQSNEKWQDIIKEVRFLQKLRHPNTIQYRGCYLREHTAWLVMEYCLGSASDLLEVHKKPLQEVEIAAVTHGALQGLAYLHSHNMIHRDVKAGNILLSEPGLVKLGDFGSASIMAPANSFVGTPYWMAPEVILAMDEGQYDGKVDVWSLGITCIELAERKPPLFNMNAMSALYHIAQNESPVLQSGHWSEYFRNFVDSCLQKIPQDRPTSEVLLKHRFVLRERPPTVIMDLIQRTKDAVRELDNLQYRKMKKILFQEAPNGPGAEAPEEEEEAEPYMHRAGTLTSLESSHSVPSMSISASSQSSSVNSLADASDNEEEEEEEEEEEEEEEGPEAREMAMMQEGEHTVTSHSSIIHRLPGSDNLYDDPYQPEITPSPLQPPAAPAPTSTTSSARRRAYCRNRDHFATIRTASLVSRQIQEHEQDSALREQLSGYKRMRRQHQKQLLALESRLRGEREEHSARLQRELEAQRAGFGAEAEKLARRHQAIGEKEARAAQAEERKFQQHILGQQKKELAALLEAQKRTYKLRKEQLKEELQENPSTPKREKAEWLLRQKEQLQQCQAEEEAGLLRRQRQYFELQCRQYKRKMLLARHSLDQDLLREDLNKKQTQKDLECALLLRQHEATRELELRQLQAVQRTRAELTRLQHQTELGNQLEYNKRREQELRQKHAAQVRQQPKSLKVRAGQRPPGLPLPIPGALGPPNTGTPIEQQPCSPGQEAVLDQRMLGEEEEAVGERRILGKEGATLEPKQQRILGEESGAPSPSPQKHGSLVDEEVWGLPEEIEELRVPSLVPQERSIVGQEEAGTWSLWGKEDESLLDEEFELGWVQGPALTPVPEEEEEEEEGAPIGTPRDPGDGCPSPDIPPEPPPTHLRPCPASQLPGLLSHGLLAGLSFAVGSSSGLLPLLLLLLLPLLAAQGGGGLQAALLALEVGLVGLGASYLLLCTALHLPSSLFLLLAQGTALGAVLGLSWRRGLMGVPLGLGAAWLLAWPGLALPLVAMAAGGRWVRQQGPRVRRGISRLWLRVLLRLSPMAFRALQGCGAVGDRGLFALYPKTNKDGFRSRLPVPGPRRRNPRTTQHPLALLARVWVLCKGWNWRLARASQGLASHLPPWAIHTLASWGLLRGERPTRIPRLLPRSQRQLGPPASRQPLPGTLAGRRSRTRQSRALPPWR

RAF-1 = RAF-1 (Homo sapiens, UniProt P04049); assay: ExpresS Diversity Kinase Profile, Cerep (LANCE): RAF-1; conditions: for inhibition at 150 µM: RAF-1
Sequence of RAF-1 (P04049 whole entry): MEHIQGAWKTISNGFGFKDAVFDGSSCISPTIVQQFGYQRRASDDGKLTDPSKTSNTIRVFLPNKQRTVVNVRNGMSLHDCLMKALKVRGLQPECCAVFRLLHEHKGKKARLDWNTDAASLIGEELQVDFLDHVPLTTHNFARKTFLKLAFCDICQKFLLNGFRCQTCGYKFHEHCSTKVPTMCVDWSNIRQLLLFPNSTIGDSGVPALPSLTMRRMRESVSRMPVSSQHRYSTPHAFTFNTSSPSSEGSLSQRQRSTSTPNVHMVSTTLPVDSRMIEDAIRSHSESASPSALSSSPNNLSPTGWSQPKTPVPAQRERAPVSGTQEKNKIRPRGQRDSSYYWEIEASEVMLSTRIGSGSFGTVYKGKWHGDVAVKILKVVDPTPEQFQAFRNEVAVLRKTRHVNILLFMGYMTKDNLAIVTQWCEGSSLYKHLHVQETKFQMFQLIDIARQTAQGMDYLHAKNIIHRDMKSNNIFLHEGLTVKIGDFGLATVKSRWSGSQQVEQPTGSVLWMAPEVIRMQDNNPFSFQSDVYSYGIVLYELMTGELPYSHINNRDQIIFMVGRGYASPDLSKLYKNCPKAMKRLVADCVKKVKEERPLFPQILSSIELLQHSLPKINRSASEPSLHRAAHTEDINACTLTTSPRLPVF

[1] = Flag: Interference, read-out: % Inhibition of control values, 1st measurement
[2] = Flag: Interference, read-out: % Inhibition of control values, 2nd measurement
[3] = n = 2, Flag: Interference, read-out: % Inhibition of control values, Mean
[4] = n = 2, read-out: % Inhibition of control values, Mean
[5] = read-out: % Inhibition of control values, 1st measurement
[6] = read-out: % Inhibition of control values, 2nd measurement

Sequence of EphA2 (P29317 24-976): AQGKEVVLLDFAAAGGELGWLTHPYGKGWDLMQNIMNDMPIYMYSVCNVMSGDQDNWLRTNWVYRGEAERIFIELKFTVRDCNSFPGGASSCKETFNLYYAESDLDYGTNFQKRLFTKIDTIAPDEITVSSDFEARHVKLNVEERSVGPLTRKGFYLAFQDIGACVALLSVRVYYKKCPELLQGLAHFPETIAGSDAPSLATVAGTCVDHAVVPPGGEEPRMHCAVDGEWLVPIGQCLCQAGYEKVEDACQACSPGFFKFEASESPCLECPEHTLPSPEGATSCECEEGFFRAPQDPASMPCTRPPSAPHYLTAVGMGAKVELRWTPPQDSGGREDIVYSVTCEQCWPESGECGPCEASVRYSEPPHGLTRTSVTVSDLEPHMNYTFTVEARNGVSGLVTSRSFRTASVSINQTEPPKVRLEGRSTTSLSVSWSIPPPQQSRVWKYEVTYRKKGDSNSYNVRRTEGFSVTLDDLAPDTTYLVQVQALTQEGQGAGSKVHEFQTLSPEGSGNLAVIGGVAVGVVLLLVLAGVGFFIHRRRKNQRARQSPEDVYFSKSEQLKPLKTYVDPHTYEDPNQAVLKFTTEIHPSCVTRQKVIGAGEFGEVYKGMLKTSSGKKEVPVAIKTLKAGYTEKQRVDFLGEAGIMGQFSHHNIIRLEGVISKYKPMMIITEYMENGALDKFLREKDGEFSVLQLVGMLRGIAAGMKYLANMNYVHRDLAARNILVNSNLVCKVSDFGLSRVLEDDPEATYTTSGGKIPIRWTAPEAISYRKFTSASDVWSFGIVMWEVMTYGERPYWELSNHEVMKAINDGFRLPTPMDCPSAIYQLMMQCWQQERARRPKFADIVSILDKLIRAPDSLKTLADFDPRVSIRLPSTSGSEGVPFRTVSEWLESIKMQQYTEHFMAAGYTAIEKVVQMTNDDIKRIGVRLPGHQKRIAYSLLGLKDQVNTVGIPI

CN[C@@H]1C[C@H]2O[C@@](C)([C@@H]1OC)n1c3ccccc3c3c4c(c5c6ccccc6n2c5c31)C(=O)NC4 [Staurosporine, reference compound]
nHill (EphA2; control): 1.6 | nHill (JAK3; control): 2.2 | nHill (MAP4K4; control): 2.7 | nHill (PAK2; control): > 3 | nHill (TAOK2; control): 1.6 | nHill (RAF-1; RAF1, control): 2.4

CC1(C)CCC2=C(O1)c1ccccc1C(=O)C2=O [β-Lapachone]
inhibition at 150 µM (EphA2; [1]): 63.7% | inhibition at 150 µM (EphA2; [2]): 63.5% | inhibition at 150 µM (EphA2; [3]): 63.6% | inhibition at 150 µM (JAK3; [4]): 69% | inhibition at 150 µM (JAK3; [5]): 83.6% | inhibition at 150 µM (JAK3; [6]): 54.5% | inhibition at 150 µM (MAP4K4; [4]): 48.6% | inhibition at 150 µM (MAP4K4; [5]): 47.7% | inhibition at 150 µM (MAP4K4; [6]): 49.5% | inhibition at 150 µM (PAK2; [1]): -34% | inhibition at 150 µM (PAK2; [2]): 1.5% | inhibition at 150 µM (PAK2; [3]): -16.2% | inhibition at 150 µM (TAOK2; [1]): 32.9% | inhibition at 150 µM (TAOK2; [2]): 33.1% | inhibition at 150 µM (TAOK2; [3]): 33% | inhibition at 150 µM (RAF-1; [4]): 57.3% | inhibition at 150 µM (RAF-1; [5]): 55.4% | inhibition at 150 µM (RAF-1; [6]): 59.3%
